Holding throughout (assay): relative viability (nuclei count vs DMSO), 5 days (fraction); higher = more cells survive
Compound in assay [1]: CCCS(=O)(=O)Nc1ccc(F)c(C(=O)c2c[nH]c3ncc(-c4ccc(Cl)cc4)cc23)c1F [Vemurafenib]
The gist of the method: (§1)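 Only plates meeting two conditions passed: control CV below 25% and at least one doubling. Lung cancer cell lines, kept overnight at 37 °C in 1536-well plates, were pinned with five library-drug doses (not always all listed) √10 apart on vehicle-anchored plates and grown 5 days without medium change. A one-step fix, permeabilisation and Hoechst stain preceded 4× imaging and MetaXpress nuclear counting. Viability equals treated-well nuclei divided by vehicle-well nuclei, as the median over plates.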

Compound in assay [2]: COc1cccc2cc(-c3nc([C@H]4CC[C@H](C(=O)O)CC4)n4ncnc(N)c34)[nH]c12 [OSI-027]
The gist of the method:
as §1

Compound in assay [3]: COc1cccc2cc(-c3nc([C@H]4CC[C@H](C(=O)O)CC4)n4ncnc(N)c34)[nH]c12 [OSI-027] + CS(=O)(=O)CCNCc1ccc(-c2ccc3ncnc(Nc4ccc(OCc5cccc(F)c5)c(Cl)c4)c3c2)o1 [Lapatinib] (partner 2 µM)
The method in brief: (§2)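 A single step with final 0.05% Triton X-100, 1% formaldehyde and 1 ug/ml Hoechst fixed the cells and stained nuclei 5 days after treatment. Lung cancer cell lines in 1536-well plates had been treated by pin tool the day after seeding with one drug alone or a fixed anchor-drug dose plus five library-drug doses (not always all listed) in √10 steps, and nuclei were counted on 4× images. Relative viability is the ratio of nuclei in treated wells to nuclei in vehicle wells, taken as the median of duplicate plates.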

Compound in assay [4]: CCCS(=O)(=O)Nc1ccc(F)c(C(=O)c2c[nH]c3ncc(-c4ccc(Cl)cc4)cc23)c1F [Vemurafenib] + COc1cc2c(Oc3ccc(NC(=O)C4(C(=O)Nc5ccc(F)cc5)CC4)cc3F)ccnc2cc1OCCCN1CCOCC1 [Foretinib] (partner 0.25 µM)
The method in brief: as §2

For IA-LM, the relative viability in assay [1] (0.03162 µM) was 0.837; in assay [1] (0.1 µM), 0.888; in assay [1] (0.3162 µM), 0.86; in assay [1] (1 µM), 0.851; in assay [2] (0.01 µM) it was 0.888; in assay [2] (0.03162 µM) it was 0.779. The relative viability in assay [2] (0.1 µM) came to 0.671; in assay [2] (0.3162 µM), 0.293; in assay [2] (1 µM) it was 0.151; in assay [3] (first compound 0.01 µM) it was 0.765; in assay [3] (first compound 0.03162 µM), 0.697; in assay [3] (first compound 0.1 µM) it was 0.499. For the same cell line, the relative viability in assay [3] (first compound 0.3162 µM) was found to be 0.193; in assay [3] (first compound 1 µM), 0.223; in assay [4] (first compound 0.03162 µM), 1.16; in assay [4] (first compound 0.1 µM), 1.26; in assay [4] (first compound 0.3162 µM), 1.08; in assay [4] (first compound 1 µM) it was 0.981.
As to NCI-H1650, the relative viability in assay [1] (0.03162 µM) stood at 0.774; in assay [1] (0.1 µM), 0.701; in assay [1] (0.3162 µM) it was 0.924; in assay [1] (1 µM) it was 1.01; in assay [2] (0.01 µM) it was 0.937; in assay [2] (0.03162 µM), 0.843. The relative viability in assay [2] (0.1 µM) was 0.912; in assay [2] (0.3162 µM) it was 0.893; in assay [2] (0.5 µM, anchor plate), 0.689; in assay [2] (1 µM), 0.421; in assay [3] (first compound 0.01 µM), 0.76; in assay [3] (first compound 0.03162 µM), 0.725. Further, the relative viability is 0.643 in assay [3] (first compound 0.1 µM); 0.646 in assay [3] (first compound 0.3162 µM); 0.392 in assay [3] (first compound 1 µM); 0.649 in assay [4] (first compound 0.1 µM); 1.19 in assay [4] (first compound 1 µM).
Regarding NCI-H322M, the relative viability in assay [1] (0.03162 µM) came out at 0.883; in assay [1] (0.3162 µM) it was 1.11; in assay [1] (1 µM), 0.906; in assay [2] (0.01 µM), 0.922; in assay [2] (0.03162 µM), 0.887; in assay [2] (0.1 µM), 0.843. Moreover, the relative viability in assay [2] (0.3162 µM) was 0.72; in assay [2] (0.5 µM, anchor plate), 0.578; in assay [2] (1 µM) it was 0.527; in assay [3] (first compound 0.01 µM) it was 0.578; in assay [3] (first compound 0.03162 µM) it was 0.651; in assay [3] (first compound 0.1 µM), 0.543. The relative viability in assay [3] (first compound 0.3162 µM) stood at 0.57; in assay [3] (first compound 1 µM), 0.559; in assay [4] (first compound 0.03162 µM), 0.923; in assay [4] (first compound 1 µM), 1.02.
For the cell line SW 1573, the relative viability was 0.916 in assay [1] (0.03162 µM); 0.927 in assay [1] (0.1 µM); 0.957 in assay [1] (0.3162 µM); 0.941 in assay [1] (1 µM); 0.951 in assay [2] (0.01 µM); 0.892 in assay [2] (0.03162 µM). Also, the relative viability in assay [2] (0.1 µM) was determined as 0.938; in assay [2] (0.3162 µM) it was 0.878; in assay [2] (0.5 µM, anchor plate), 0.671; in assay [2] (1 µM), 0.655; in assay [3] (first compound 0.01 µM), 0.941; in assay [3] (first compound 0.03162 µM), 1.14. Also, the relative viability in assay [3] (first compound 0.1 µM) worked out at 1.05; in assay [3] (first compound 0.3162 µM) it was 0.989; in assay [3] (first compound 1 µM) it was 0.636; in assay [4] (first compound 0.03162 µM), 0.906; in assay [4] (first compound 0.1 µM), 0.893; in assay [4] (first compound 0.3162 µM) it was 0.955. The relative viability in assay [4] (first compound 1 µM) was 0.891.
In the case of HCC-827, the relative viability in assay [1] (0.03162 µM) is 1.05; in assay [1] (0.3162 µM), 0.95; in assay [1] (1 µM) it was 1.07; in assay [2] (0.01 µM), 1.08; in assay [2] (0.03162 µM), 1.02; in assay [2] (0.1 µM) it was 1.04. Also, the relative viability in assay [2] (0.3162 µM) was 1.04; in assay [2] (0.5 µM, anchor plate) it was 0.792; in assay [2] (1 µM), 0.956; in assay [3] (first compound 0.01 µM) it was 0.151; in assay [3] (first compound 0.03162 µM), 0.173; in assay [3] (first compound 0.1 µM), 0.205. The relative viability in assay [3] (first compound 0.3162 µM) turned out to be 0.185; in assay [3] (first compound 1 µM) it was 0.176; in assay [4] (first compound 0.03162 µM), 0.911; in assay [4] (first compound 0.3162 µM), 1.12; in assay [4] (first compound 1 µM) it was 1.04.
Regarding LU99A, the relative viability in assay [1] (0.03162 µM) is 0.93; in assay [1] (0.1 µM) it was 0.946; in assay [1] (0.3162 µM), 0.74; in assay [1] (1 µM), 0.895; in assay [2] (0.01 µM), 0.953; in assay [2] (0.03162 µM) it was 0.894. The relative viability is 0.831 in assay [2] (0.1 µM); 0.451 in assay [2] (0.3162 µM); 0.307 in assay [2] (0.5 µM, anchor plate); 0.27 in assay [2] (1 µM); 0.834 in assay [3] (first compound 0.01 µM); 0.921 in assay [3] (first compound 0.03162 µM). The relative viability in assay [3] (first compound 0.1 µM) came to 0.789; in assay [3] (first compound 0.3162 µM) it was 0.309; in assay [3] (first compound 1 µM), 0.218; in assay [4] (first compound 0.03162 µM), 0.87; in assay [4] (first compound 0.1 µM), 0.867; in assay [4] (first compound 0.3162 µM) it was 0.819. Moreover, in assay [4] (first compound 1 µM), the relative viability came to 0.723.
With LK-2, the relative viability is 0.944 in assay [1] (0.03162 µM); 0.937 in assay [1] (0.1 µM); 1.05 in assay [1] (0.3162 µM); 0.66 in assay [1] (1 µM); 1.02 in assay [2] (0.01 µM); 0.914 in assay [2] (0.03162 µM). Moreover, the relative viability in assay [2] (0.1 µM) was found to be 0.703; in assay [2] (0.3162 µM) it was 0.515; in assay [2] (0.5 µM, anchor plate) it was 0.221; in assay [2] (1 µM), 0.191; in assay [3] (first compound 0.01 µM), 0.861; in assay [3] (first compound 0.03162 µM), 0.789. Moreover, the relative viability in assay [3] (first compound 0.1 µM) worked out at 0.609; in assay [3] (first compound 0.3162 µM), 0.385; in assay [3] (first compound 1 µM) it was 0.268; in assay [4] (first compound 0.03162 µM), 1.37; in assay [4] (first compound 0.1 µM), 0.913; in assay [4] (first compound 0.3162 µM) it was 1.09. Also, in assay [4] (first compound 1 µM), the relative viability was 0.915.
As to EMC-BAC-2, the relative viability turned out to be 0.893 in assay [1] (0.03162 µM); 0.977 in assay [1] (0.1 µM); 0.624 in assay [1] (0.3162 µM); 0.826 in assay [1] (1 µM); 0.938 in assay [2] (0.01 µM); 1.02 in assay [2] (0.03162 µM). Also, the relative viability worked out at 0.824 in assay [2] (0.1 µM); 0.644 in assay [2] (0.3162 µM); 0.39 in assay [2] (0.5 µM, anchor plate); 0.474 in assay [2] (1 µM); 0.843 in assay [3] (first compound 0.01 µM); 0.874 in assay [3] (first compound 0.03162 µM). The relative viability in assay [3] (first compound 0.1 µM) came out at 0.838; in assay [3] (first compound 0.3162 µM), 0.7; in assay [3] (first compound 1 µM) it was 0.516; in assay [4] (first compound 0.03162 µM), 1.06; in assay [4] (first compound 0.1 µM) it was 0.862; in assay [4] (first compound 0.3162 µM) it was 0.832. Besides, in assay [4] (first compound 1 µM), the relative viability was 1.03.

The values are drawn from the supplement of paper PMC10307832.
